Results on 28 compounds are retold here after patent US4154967A, “Process for preparation of phenols” (Mitsui Petrochemical Industries, Ltd., priority 1976, dated 1979).

A short description of this data set: physchem. The note with it: ethanol-water.
With `Sc1ccc(Br)cc1` [para-bromophenyl mercaptan], the pKa worked out at 7.

Consider `O=S(=O)(O)c1cccc(S)c1` [meta-mercaptobenzenesulfonic acid], for which the pKa amounted to 5.9. Then `O=[N+]([O-])c1cccc(S)c1` [meta-nitrophenyl mercaptan], with 5.9; and `CS(=O)(=O)c1cccc(S)c1` [meta-methylsulfonylphenyl mercaptan], with 5.9. `Sc1cccc(Cl)c1` [meta-chlorophenyl mercaptan] displayed a pKa of 6.7.

`FC(F)(F)c1cc(S)ccc1Cl` [3-trifluoromethyl-4-chlorophenyl mercaptan] came in with a pKa of 6.2. Then `O=S(=O)(O)c1ccc(S)cc1` [para-mercaptobenzenesulfonic acid], with 5.7; and `Fc1cccc(S)c1` [meta-fluorophenyl mercaptan], with 6.8; and `Sc1ccc(I)cc1` [para-iodophenyl mercaptan], with 6.9. Then `N#Cc1ccc(S)cc1` [para-cyanophenyl mercaptan], with 6. For `Fc1ccc(S)cc1` [para-fluorophenyl mercaptan] the value was 7.5; for `Sc1cc(Cl)cc(Cl)c1` [3,5-dichlorophenyl mercaptan], 5.8.

In turn, `Sc1ccc(Cl)cc1` [para-chlorophenyl mercaptan] showed a pKa of 7. For `Sc1cc(Cl)c(Cl)cc1Cl` [2,4,5-trichlorophenyl mercaptan] the value was 4.2; for `N#Cc1cccc(S)c1` [meta-cyanophenyl mercaptan], 6.3. Then `CC(=O)c1ccc(S)cc1` [para-acetyl phenyl mercaptan], with 5.9; and `FC(F)(F)c1ccc(Cl)c(S)c1` [2-chloro-5-trifluoromethylphenyl mercaptan], with 6; and `O=C(O)c1ccccc1S` [orthocarboxyphenyl mercaptan], with 5.6.

`Sc1ccc(Cl)c(Cl)c1` [3,4-dichlorophenyl mercaptan] had a pKa of 6.2. As to `O=C(S)c1ccccc1` [thiobenzoic acid], the pKa turned out to be 6.3. For `CS(=O)(=O)c1ccc(S)cc1` [para-methylsulfonylphenyl mercaptan] the value was 5.6; for `CC(=O)c1cccc(S)c1` [meta-acetyl phenyl mercaptan], 6.9; for `Sc1c(Cl)c(Cl)c(Cl)c(Cl)c1Cl` [pentachlorophenyl mercaptan], 3.5. For `Sc1cccc(I)c1` [meta-iodophenyl mercaptan], the pKa worked out at 6.8. Compound `Sc1cccc(Br)c1` [meta-bromophenyl mercaptan] gave a pKa of 6.8. Turning to `O=[N+]([O-])c1ccc(S)c([N+](=O)[O-])c1` [2,4-dinitrophenyl mercaptan], the pKa is 4.

Compound `Fc1c(F)c(F)c(S)c(F)c1F` [pentafluorophenyl mercaptan] gave a pKa of 2.7.

With `O=C(O)c1ccc(S)cc1` [para-carboxyphenyl mercaptan], the pKa was found to be 5.9.
